Source: PubChem BioAssay (NCI)
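1) Cells in 96-well plates. 2) Compound, 48 h, 5 concentrations. 3) Linear interpolation between surrounding doses. 4) Unreached endpoint = highest concentration. TGI marks complete inhibition of growth.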

How the values were obtained:
Assay in all cases: NCI tumour cell line growth inhibition, 48 h
A498 renal = system: A498 renal
UACC-62 melanoma = system: UACC-62 melanoma
HOP-92 NSCLC = system: HOP-92 NSCLC
NCI-H522 lung = system: NCI-H522 lung
RXF-631 renal = system: RXF-631 renal
SNB-19 CNS = system: SNB-19 CNS
DMS 114 small cell lung = system: DMS 114 small cell lung
CCRF-CEM leukemia = system: CCRF-CEM leukemia
SK-OV-3 ovarian = system: SK-OV-3 ovarian
MOLT-4 leukemia = system: MOLT-4 leukemia
OVCAR-5 ovarian = system: OVCAR-5 ovarian
UO-31 renal = system: UO-31 renal
SNB-78 CNS = system: SNB-78 CNS
KM20L2 colon = system: KM20L2 colon
TK-10 renal = system: TK-10 renal
HOP-62 NSCLC = system: HOP-62 NSCLC
ACHN renal = system: ACHN renal
KM12 colon = system: KM12 colon
EKVX NSCLC = system: EKVX NSCLC
HL-60(TB) leukemia = system: HL-60(TB) leukemia
HT29 colon = system: HT29 colon
M14 melanoma = system: M14 melanoma
A549 NSCLC = system: A549 NSCLC
IGROV1 ovarian = system: IGROV1 ovarian
NCI-H460 lung = system: NCI-H460 lung
U251 CNS = system: U251 CNS
HCT-116 colon = system: HCT-116 colon
M19-MEL melanoma = system: M19-MEL melanoma
UACC-257 melanoma = system: UACC-257 melanoma
SK-MEL-28 melanoma = system: SK-MEL-28 melanoma
SR leukemia = system: SR leukemia
OVCAR-8 ovarian = system: OVCAR-8 ovarian
SF-295 CNS = system: SF-295 CNS
RXF 393 renal = system: RXF 393 renal
NCI-H23 lung = system: NCI-H23 lung
K-562 leukemia = system: K-562 leukemia
SK-MEL-5 melanoma = system: SK-MEL-5 melanoma
XF 498 CNS = system: XF 498 CNS
SW-620 colon = system: SW-620 colon
OVCAR-3 ovarian = system: OVCAR-3 ovarian
SNB-75 CNS = system: SNB-75 CNS
HCT-15 colon = system: HCT-15 colon
OVCAR-4 ovarian = system: OVCAR-4 ovarian
DLD-1 colon = system: DLD-1 colon
MALME-3M melanoma = system: MALME-3M melanoma
DMS 273 small cell lung = system: DMS 273 small cell lung
SF-268 CNS = system: SF-268 CNS
NCI-H226 lung = system: NCI-H226 lung
SF-539 CNS = system: SF-539 CNS
SN12C renal = system: SN12C renal
HOP-18 NSCLC = system: HOP-18 NSCLC
786-0 renal = system: 786-0 renal
RPMI-8226 leukemia = system: RPMI-8226 leukemia
COLO 205 colon = system: COLO 205 colon
SK-MEL-2 melanoma = system: SK-MEL-2 melanoma
CAKI-1 renal = system: CAKI-1 renal
LXFL 529 NSCLC = system: LXFL 529 NSCLC
HCC-2998 colon = system: HCC-2998 colon
LOX IMVI melanoma = system: LOX IMVI melanoma

COc1ccc(C(=O)O)c2c(=O)c3cccnc3[nH]c12
TGI (A498 renal): > 100 µM
TGI (UACC-62 melanoma): > 100 µM
TGI (HOP-92 NSCLC): > 100 µM
TGI (NCI-H522 lung): > 100 µM
TGI (RXF-631 renal): > 100 µM
TGI (SNB-19 CNS): > 100 µM
TGI (DMS 114 small cell lung): > 100 µM
TGI (CCRF-CEM leukemia): > 100 µM
TGI (SK-OV-3 ovarian): > 100 µM
TGI (MOLT-4 leukemia): > 100 µM
TGI (OVCAR-5 ovarian): > 100 µM
TGI (UO-31 renal): > 100 µM
TGI (SNB-78 CNS): > 100 µM
TGI (KM20L2 colon): > 100 µM
TGI (TK-10 renal): > 100 µM
TGI (HOP-62 NSCLC): > 100 µM
TGI (ACHN renal): > 100 µM
TGI (KM12 colon): > 100 µM
TGI (EKVX NSCLC): > 100 µM
TGI (HL-60(TB) leukemia): > 100 µM
TGI (HT29 colon): > 100 µM
TGI (M14 melanoma): > 100 µM
TGI (A549 NSCLC): > 100 µM
TGI (IGROV1 ovarian): > 100 µM
TGI (NCI-H460 lung): > 100 µM
TGI (U251 CNS): > 100 µM
TGI (HCT-116 colon): > 100 µM
TGI (M19-MEL melanoma): > 100 µM
TGI (UACC-257 melanoma): > 100 µM
TGI (SK-MEL-28 melanoma): > 100 µM
TGI (SR leukemia): > 100 µM
TGI (OVCAR-8 ovarian): > 100 µM
TGI (SF-295 CNS): > 100 µM
TGI (RXF 393 renal): > 100 µM
TGI (NCI-H23 lung): > 100 µM

Cc1c(C(=O)CC(=O)C(=O)Nc2ccc(Cl)cc2)[n+](=O)c2ccccc2n1[O-]
TGI (A498 renal): > 100 µM
TGI (UACC-62 melanoma): > 100 µM
TGI (HOP-92 NSCLC): > 100 µM
TGI (K-562 leukemia): > 100 µM
TGI (NCI-H522 lung): > 100 µM
TGI (SK-MEL-5 melanoma): > 100 µM
TGI (SNB-19 CNS): > 100 µM
TGI (DMS 114 small cell lung): > 100 µM
TGI (XF 498 CNS): > 100 µM
TGI (CCRF-CEM leukemia): > 100 µM
TGI (SW-620 colon): > 100 µM
TGI (OVCAR-3 ovarian): > 100 µM
TGI (SNB-75 CNS): > 100 µM
TGI (SK-OV-3 ovarian): > 100 µM
TGI (HCT-15 colon): > 100 µM
TGI (MOLT-4 leukemia): > 100 µM
TGI (OVCAR-5 ovarian): > 100 µM
TGI (UO-31 renal): > 100 µM
TGI (SNB-78 CNS): > 100 µM
TGI (OVCAR-4 ovarian): > 100 µM
TGI (KM20L2 colon): > 100 µM
TGI (TK-10 renal): > 100 µM
TGI (DLD-1 colon): > 100 µM
TGI (MALME-3M melanoma): > 100 µM
TGI (ACHN renal): > 100 µM
TGI (KM12 colon): > 100 µM
TGI (DMS 273 small cell lung): > 100 µM
TGI (EKVX NSCLC): > 100 µM
TGI (SF-268 CNS): > 100 µM
TGI (HL-60(TB) leukemia): > 100 µM
TGI (NCI-H226 lung): > 100 µM
TGI (M14 melanoma): > 100 µM
TGI (A549 NSCLC): > 100 µM
TGI (IGROV1 ovarian): > 100 µM
TGI (NCI-H460 lung): > 100 µM
TGI (U251 CNS): > 100 µM
TGI (SF-539 CNS): > 100 µM
TGI (HCT-116 colon): > 100 µM
TGI (M19-MEL melanoma): > 100 µM
TGI (SN12C renal): > 100 µM
TGI (HOP-18 NSCLC): > 100 µM
TGI (UACC-257 melanoma): > 100 µM
TGI (786-0 renal): > 100 µM
TGI (SK-MEL-28 melanoma): > 100 µM
TGI (RPMI-8226 leukemia): > 100 µM
TGI (OVCAR-8 ovarian): > 100 µM
TGI (COLO 205 colon): > 100 µM
TGI (SK-MEL-2 melanoma): > 100 µM
TGI (CAKI-1 renal): > 100 µM
TGI (SF-295 CNS): > 100 µM
TGI (LXFL 529 NSCLC): > 100 µM
TGI (NCI-H23 lung): > 100 µM

CN(C)CCNC(=O)c1cccc2[nH]c(-c3cccnc3)nc12
TGI (A498 renal): 30.6 µM
TGI (UACC-62 melanoma): 34.2 µM
TGI (HOP-92 NSCLC): 53.9 µM
TGI (K-562 leukemia): > 100 µM
TGI (SK-MEL-5 melanoma): 30.8 µM
TGI (SNB-19 CNS): > 100 µM
TGI (CCRF-CEM leukemia): > 100 µM
TGI (SW-620 colon): 42.1 µM
TGI (OVCAR-3 ovarian): 56.3 µM
TGI (SNB-75 CNS): 73.3 µM
TGI (SK-OV-3 ovarian): 80.3 µM
TGI (HCT-15 colon): 79.6 µM
TGI (MOLT-4 leukemia): > 100 µM
TGI (OVCAR-5 ovarian): 64.2 µM
TGI (UO-31 renal): 39.5 µM
TGI (SNB-78 CNS): > 100 µM
TGI (OVCAR-4 ovarian): 88.9 µM
TGI (TK-10 renal): 53.5 µM
TGI (HOP-62 NSCLC): 44.1 µM
TGI (DLD-1 colon): 73.1 µM
TGI (ACHN renal): 37 µM
TGI (KM12 colon): > 100 µM
TGI (DMS 273 small cell lung): 74.4 µM
TGI (EKVX NSCLC): 56.5 µM
TGI (SF-268 CNS): 98.7 µM
TGI (HL-60(TB) leukemia): > 100 µM
TGI (NCI-H226 lung): 56.6 µM
TGI (HT29 colon): 92.8 µM
TGI (M14 melanoma): 43.8 µM
TGI (A549 NSCLC): 43.5 µM
TGI (IGROV1 ovarian): > 100 µM
TGI (NCI-H460 lung): 49.9 µM
TGI (U251 CNS): 74.7 µM
TGI (SF-539 CNS): 45.5 µM
TGI (HCT-116 colon): 42.8 µM
TGI (M19-MEL melanoma): 39.8 µM
TGI (SN12C renal): 54.4 µM
TGI (HOP-18 NSCLC): 84 µM
TGI (HCC-2998 colon): 43.4 µM
TGI (LOX IMVI melanoma): 48.7 µM
TGI (UACC-257 melanoma): 39.9 µM
TGI (786-0 renal): 55.6 µM
TGI (SK-MEL-28 melanoma): 83.8 µM
TGI (OVCAR-8 ovarian): 44.1 µM
TGI (COLO 205 colon): 32.5 µM
TGI (SK-MEL-2 melanoma): 62.8 µM
TGI (CAKI-1 renal): 88.1 µM
TGI (SF-295 CNS): > 100 µM
TGI (RXF 393 renal): 33.8 µM
TGI (NCI-H23 lung): 44.9 µM

O=[N+]([O-])c1cc(C2SCc3nc4ccccc4n32)ccc1Cl (stereo not drawn)
TGI (A498 renal): 69.6 µM
TGI (UACC-62 melanoma): 52.6 µM
TGI (HOP-92 NSCLC): 49.3 µM
TGI (K-562 leukemia): > 100 µM
TGI (NCI-H522 lung): 77.1 µM
TGI (SK-MEL-5 melanoma): 28.3 µM
TGI (SNB-19 CNS): > 100 µM
TGI (DMS 114 small cell lung): 54.3 µM
TGI (CCRF-CEM leukemia): 85.9 µM
TGI (SW-620 colon): > 100 µM
TGI (OVCAR-3 ovarian): 67.6 µM
TGI (SNB-75 CNS): > 100 µM
TGI (SK-OV-3 ovarian): 66.2 µM
TGI (MOLT-4 leukemia): > 100 µM
TGI (OVCAR-5 ovarian): 76.8 µM
TGI (UO-31 renal): 58.6 µM
TGI (SNB-78 CNS): 80.1 µM
TGI (TK-10 renal): > 100 µM
TGI (DLD-1 colon): > 100 µM
TGI (MALME-3M melanoma): > 100 µM
TGI (ACHN renal): > 100 µM
TGI (KM12 colon): 31.3 µM
TGI (DMS 273 small cell lung): 58 µM
TGI (EKVX NSCLC): > 100 µM
TGI (SF-268 CNS): 81.1 µM
TGI (HL-60(TB) leukemia): 42.4 µM
TGI (NCI-H226 lung): 61.8 µM
TGI (HT29 colon): > 100 µM
TGI (A549 NSCLC): > 100 µM
TGI (IGROV1 ovarian): > 100 µM
TGI (NCI-H460 lung): > 100 µM
TGI (U251 CNS): > 100 µM
TGI (SF-539 CNS): 89.5 µM
TGI (HCT-116 colon): 40.4 µM
TGI (M19-MEL melanoma): 53.9 µM
TGI (SN12C renal): 33.8 µM
TGI (HOP-18 NSCLC): > 100 µM
TGI (HCC-2998 colon): 34.3 µM
TGI (UACC-257 melanoma): 53.1 µM
TGI (786-0 renal): > 100 µM
TGI (SK-MEL-28 melanoma): > 100 µM
TGI (SR leukemia): > 100 µM
TGI (RPMI-8226 leukemia): 60.2 µM
TGI (OVCAR-8 ovarian): > 100 µM
TGI (COLO 205 colon): 46.6 µM
TGI (SK-MEL-2 melanoma): 50.9 µM
TGI (CAKI-1 renal): > 100 µM
TGI (SF-295 CNS): > 100 µM
TGI (LXFL 529 NSCLC): 99.7 µM
TGI (RXF 393 renal): 79 µM
TGI (NCI-H23 lung): 78.1 µM
